Measured values taken from patent US8501241B1, “Treating cancer with a whole, leech saliva extract” (priority 2012, dated 2013).

Legend:
[1] = test system: Cryptococcus neoformans ATCC90112; assay: Kirby-Bauer disc diffusion; format: cell-based; settings: reference antibiotic disc, 100 units/disc
From the text: (§1) Experimental procedures include the following steps: • 1.

[2] = test system: Candida albicans ATCC10231; assay: Kirby-Bauer disc diffusion; format: cell-based; settings: reference antibiotic disc, 100 units/disc
From the text: as §1

[3] = Mortality, behaviour and acute toxicity signs in injected diabetic rats; format: in vivo, rat (Sprague Dawley); settings: insulin 20 units/kg b.w
induced-diabetic rats = assay: Antihyperglycemic activity: fall in fasting blood glucose in alloxan-induced diabetic rats; format: in vivo, rat (Sprague Dawley)

Compound	Zone of inhibition (mm) C. neoformance [1] [mm]	Zone of inhibition (mm) C. albicans [2] [mm]	hypoglycemia and mortality [3]	fasting blood glucose (FBG) (induced-diabetic rats; after two hours of injection)	difference between normal rats and treated diabetic rats (induced-diabetic rats; at either dose)	fasting blood glucose (FBG) (induced-diabetic rats; insulin 10 units/kg b.w, after 8 hours of treatment)
C[C@@H]1[C@H](O)[C@@H](C)/C=C/C=C/CC/C=C/C=C/C=C/C=C/C(O[C@H]2O[C@H](C)[C@@H](O)[C@H](N)[C@@H]2O)CC2O[C@](O)(CC(O)C(O)CCC(O)CC(O)CC(O)CC(=O)O[C@H]1C)CC(O)C2C(=O)O (stereo partly drawn) [Nystatin, nystatin]	9	10	–	–	–	–
insulin: insulin from bovine pancreas (≧27 units/mg)	–	–	hypoglycemic condition in all rats leading to the death of one rat	sharp significant decrease (p<0.001)	No significant difference	returned to the diabetic state
